Source: patent publication US9732032B2, “3-aminocyclopentane carboxamide derivatives” (Merck Patent GmbH, priority 2012, dated 2017)

Biological target: T1, human recombinant full-length fatty acid synthase (FASN) (Homo sapiens, UniProt P49327)
T1 construct: human recombinant full-length fatty acid synthase; made in house; host or cells: SF9 cells
Assay: Biochemical activity testing of human fatty acid synthase FASN (NADPH fluorescence intensity assay)
Conditions: NADPH fluorescence decrease (ex 340 nm / em 460 nm), 30 minutes at room temperature, read-out: IC50 FASN (enzyme assay)
From the text: aq (aqueous), h (hour), g (gram), L (liter), mg (milligram), MHz (Megahertz), (melting point), eq (equivalent), mL (milliliter), L (microliter), ACN (acetonitrile), AcOH (acetic acid), CDCl3 (deuterated chloroform), CD3OD (deuterated methanol), CH3CN (acetonitrile), c-hex (cyclohexane), DCC (dicyclohexyl carbodiimide), DCM (dichloromethane), DIC (diisopropyl carbodiimide), DIEA (diisopropylethyl-amine), DMF (dimethylformamide), DMSO (dimethylsulfoxide), DMSO-d6 (deuterated dimethylsulfoxide), EDC (1-(3-dimethyl-amino-propyl)-3-ethylcarbodiimide), ESI (Electro-spray ionization), EtOAc (ethyl acetate), Et2O (diethyl ether), EtOH (ethanol), HATU (dimethylamino-([1,2,3]triazolo[4,5-b]pyridin-3-yloxy)-methylene]-dimethylammonium hexafluorophosphate), HPLC (High Performance Liquid Chromatography), i-PrOH (2-propanol), K2CO3 (potassium carbonate), LC (Liquid Chromatography), MeOH (methanol), MgSO4 (magnesium sulfate), MS (mass spectrometry), MTBE (Methyl tert-butyl ether), NaHCO3 (sodium bicarbonate), NaBH4 (sodium borohydride), NMM (N-methyl morpholine), NMR (Nuclear Magnetic Resonance), PyBOP (benzotriazole-1-yl-oxy-trispyrrolidino-phosphonium hexafluorophosphate), RT (room temperature), Rt (retention time), SPE (solid phase extraction), TBTU (2-(1-H-benzotriazole-1-yl)-1,1,3,3-tetramethyluromium tetrafluoro borate), TEA (triethylamine), TFA (trifluoroacetic acid), THF (tetrahydrofuran), TLC (Thin Layer Chromatography), UV (Ultraviolet). Description of the In Vitro Assays Abbreviations: GST=Glutathione-S-transferase FRET=Fluorescence resonance energy transfer HTRF®=(homogenous time resolved fluorescence) HEPES=4-(2-hydroxyethyl)-1-piperazine ethanesulfonic acid buffer DTT=Dithiothreitol BSA=bovine serum albumin CHAPS=detergent; CHAPS=3[(3-cholamidopropyl)dimethylammonio]-1-propanesulfonate Biochemical Activity Testing of Human Fatty Acid Synthase FASN
Fatty acid synthase FASN is a multifunctional enzyme with seven catalytic activities thereby synthesising long chain fatty acids especially palmitoyl-CoA in the presence of co-factor NADPH starting from the substrates acetyl-CoA and malonyl-CoA. The reductive synthesis is realized by the oxidation of NADPH to NADP. Since NADPH has a high fluorescence intensity quantum yield compared to NADP with excitation at 340 nm and emission at 460 nm, the reaction can be monitored via the decrease in fluorescence intensity. The biochemical FASN activity testing was performed as 384 well two-time-point kinetic fluorescence intensity assay format in Greiner low volume medium binding 384-well black microtiter plates in a total assay volume of 8 μl and was used for high throughput screen. In each well 3 μl 40 nM human recombinant full-length fatty acid synthase (produced in-house in SF9 cells) were dispensed in the following assay buffer: 50 mM potassium phosphate buffer pH 7.0, 0.005% (w/v) BSA, 2 mM Glutathione, 0.02% Tween-20. Then 2 μl of 200 μM NADPH in assay buffer were added, followed by the addition of the test compounds in 10 dilution concentrations starting with 30 μM (final concentration) to get a final DMSO content of 1% (v/v). The mixture was incubated for at least 15 min at room temperature. After the pre-incubation the enzymatic reaction was started by the addition of 2 μl substrate solution (80 μM acetyl-CoA, 240 μM malonyl-CoA). A first fluorescence intensity measurement (time point one) was performed with an Envision multimode reader (Perkin Elmer LAS Germany GmbH) at excitation wavelength 340 nm (lamp mode) and emission wavelength 460 nm. The reaction was incubated for 30 minutes at room temperature. After this the fluorescence intensity was measured again in the Envision using the same parameters as described above (second time point measurement). The data were analysed by subtracting the first time point measurement value from the second time point measurement value (after the enzymatic reaction). The differences of the emission signals were determined. […]

T1 sequence (P49327 whole entry): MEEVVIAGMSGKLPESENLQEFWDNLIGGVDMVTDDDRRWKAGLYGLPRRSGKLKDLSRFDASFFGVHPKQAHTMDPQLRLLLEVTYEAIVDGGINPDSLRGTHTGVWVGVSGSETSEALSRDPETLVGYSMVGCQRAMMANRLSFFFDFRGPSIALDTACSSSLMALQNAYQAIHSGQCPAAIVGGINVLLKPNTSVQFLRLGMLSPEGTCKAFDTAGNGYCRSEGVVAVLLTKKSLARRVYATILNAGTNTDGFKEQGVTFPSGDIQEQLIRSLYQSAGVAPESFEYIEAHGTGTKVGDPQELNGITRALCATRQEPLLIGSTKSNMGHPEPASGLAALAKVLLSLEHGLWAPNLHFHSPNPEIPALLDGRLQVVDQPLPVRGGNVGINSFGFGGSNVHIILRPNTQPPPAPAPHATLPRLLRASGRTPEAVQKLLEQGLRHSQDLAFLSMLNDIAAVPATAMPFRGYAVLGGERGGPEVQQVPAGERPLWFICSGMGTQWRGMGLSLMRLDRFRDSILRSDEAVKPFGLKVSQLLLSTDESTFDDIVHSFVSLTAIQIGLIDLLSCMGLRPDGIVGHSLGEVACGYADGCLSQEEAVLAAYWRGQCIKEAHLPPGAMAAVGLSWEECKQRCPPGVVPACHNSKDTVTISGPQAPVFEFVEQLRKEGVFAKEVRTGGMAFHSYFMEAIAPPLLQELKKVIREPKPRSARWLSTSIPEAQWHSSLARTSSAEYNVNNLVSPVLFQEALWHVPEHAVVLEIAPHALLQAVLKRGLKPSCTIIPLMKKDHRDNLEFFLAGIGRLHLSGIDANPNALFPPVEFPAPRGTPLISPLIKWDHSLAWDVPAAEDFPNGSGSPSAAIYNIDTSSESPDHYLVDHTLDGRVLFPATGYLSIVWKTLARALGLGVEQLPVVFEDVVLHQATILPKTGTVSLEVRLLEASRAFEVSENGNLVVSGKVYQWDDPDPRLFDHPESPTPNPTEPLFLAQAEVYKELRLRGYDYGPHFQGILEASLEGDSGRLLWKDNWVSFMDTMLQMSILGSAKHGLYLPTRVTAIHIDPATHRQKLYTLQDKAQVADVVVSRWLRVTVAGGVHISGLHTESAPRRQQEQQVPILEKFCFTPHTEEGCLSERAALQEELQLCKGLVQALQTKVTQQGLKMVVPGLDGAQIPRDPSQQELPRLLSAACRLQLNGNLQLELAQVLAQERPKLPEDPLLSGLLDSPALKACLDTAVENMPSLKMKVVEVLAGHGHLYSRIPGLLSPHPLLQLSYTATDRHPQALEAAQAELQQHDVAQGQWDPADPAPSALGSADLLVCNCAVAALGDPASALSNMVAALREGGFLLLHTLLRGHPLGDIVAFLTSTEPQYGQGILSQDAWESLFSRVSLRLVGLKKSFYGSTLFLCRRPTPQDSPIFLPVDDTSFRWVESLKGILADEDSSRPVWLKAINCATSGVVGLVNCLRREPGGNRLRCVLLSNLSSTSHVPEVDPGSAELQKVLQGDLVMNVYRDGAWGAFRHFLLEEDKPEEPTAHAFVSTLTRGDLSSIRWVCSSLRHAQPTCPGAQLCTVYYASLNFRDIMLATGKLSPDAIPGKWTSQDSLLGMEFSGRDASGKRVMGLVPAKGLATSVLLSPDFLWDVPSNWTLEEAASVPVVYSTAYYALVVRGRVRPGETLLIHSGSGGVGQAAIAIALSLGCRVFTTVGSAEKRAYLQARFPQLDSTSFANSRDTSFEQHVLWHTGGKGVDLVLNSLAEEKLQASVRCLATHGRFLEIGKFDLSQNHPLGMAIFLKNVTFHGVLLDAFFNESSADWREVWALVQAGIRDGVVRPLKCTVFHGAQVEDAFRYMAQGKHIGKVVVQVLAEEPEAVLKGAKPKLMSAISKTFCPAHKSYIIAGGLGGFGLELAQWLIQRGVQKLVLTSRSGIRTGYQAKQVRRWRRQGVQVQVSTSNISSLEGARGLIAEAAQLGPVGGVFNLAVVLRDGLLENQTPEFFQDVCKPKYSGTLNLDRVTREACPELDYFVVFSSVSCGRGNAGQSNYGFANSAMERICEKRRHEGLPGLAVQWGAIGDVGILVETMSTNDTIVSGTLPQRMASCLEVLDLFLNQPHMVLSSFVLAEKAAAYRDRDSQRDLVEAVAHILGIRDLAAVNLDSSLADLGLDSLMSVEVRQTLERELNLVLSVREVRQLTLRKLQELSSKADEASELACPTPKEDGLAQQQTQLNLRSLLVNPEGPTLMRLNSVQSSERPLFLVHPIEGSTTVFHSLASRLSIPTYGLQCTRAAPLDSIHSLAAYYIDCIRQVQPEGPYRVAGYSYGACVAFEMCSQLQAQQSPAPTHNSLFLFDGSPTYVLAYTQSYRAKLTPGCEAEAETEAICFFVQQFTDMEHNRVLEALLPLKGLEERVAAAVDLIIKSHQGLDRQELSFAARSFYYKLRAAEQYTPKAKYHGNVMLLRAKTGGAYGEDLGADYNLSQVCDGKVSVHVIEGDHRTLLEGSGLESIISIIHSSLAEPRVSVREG

Compound	IC50
C[C@@H](CO)NC(=O)[C@H]1CC[C@@H](N(C)C(=O)c2ccc(-c3nc4ccccc4o3)cc2)C1 [Compound A90, 4-benzoxazol-2-yl-N-[(1R,3S)-3-((S)-2-hydroxy-1-methyl-ethylcarbamoyl)-cyclopentyl]-N-methyl-benzamide]	300 to 3000 nM
C[C@H](CO)NC(=O)[C@H]1CC[C@@H](N(C)C(=O)c2ccc(-c3nc4ccccc4o3)cc2)C1 [Compound A91, 4-benzoxazol-2-yl-N-[(1R,3S)-3-((R)-2-hydroxy-1-methyl-ethylcarbamoyl)-cyclopentyl]-N-methyl-benzamide]	< 300 nM
COC[C@H](C)NC(=O)[C@H]1CC[C@@H](N(C)C(=O)c2ccc(-c3nc4ccccc4o3)cc2)C1 [Compound A92, 4-benzoxazol-2-yl-N-[(1R,3S)-3-((S)-2-methoxy-1-methyl-ethylcarbamoyl)-cyclopentyl]-N-methyl-benzamide]	300 to 3000 nM
CCNC(=O)[C@H]1CC[C@@H](N(C)C(=O)c2ccc(-c3nc4cc(S(N)(=O)=O)ccc4o3)cc2)C1 [Compound A93, N-((1R,3S)-3-ethylcarbamoyl-cyclopentyl)-N-methyl-4-(5-sulfamoyl-benzooxazol-2-yl)-benzamide]	3000 to 50000 nM
CCNC(=O)[C@H]1CC[C@@H](N(C)C(=O)c2ccc(-c3nc4cc(F)cc(F)c4o3)cc2)C1 [Compound A96, 4-(5,7-difluoro-benzoxazol-2-yl)-N-((1R,3S)-3-ethylcarbamoyl-cyclopentyl)-N-methyl-benzamide]	< 300 nM
CCNC(=O)[C@H]1CC[C@@H](N(C)C(=O)c2ccc(-c3nc4ccc(F)cc4o3)cc2)C1 [Compound A98, N-((1R,3S)-3-ethylcarbamoyl-cyclopentyl)-4-(6-fluoro-benzooxazol-2-yl)-N-methyl-benzamide]	< 300 nM
CN(C(=O)c1ccc(-c2nc3ccccc3o2)cc1)[C@@H]1CC[C@H](C(=O)NC(C)(C)CO)C1 [Compound A99, 4-benzoxazol-2-yl-N-[(1R,3S)-3-(2-hydroxy-1,1-dimethyl-ethylcarbamoyl)-cyclopentyl]-N-methyl-benzamide]	300 to 3000 nM
CCNC(=O)[C@H]1CC[C@@H](N(C)C(=O)c2ccc(-c3nc4cc(F)c(F)cc4o3)cc2)C1 [Compound A101, 4-(5,6-difluoro-benzoxazol-2-yl)-N-((1R,3S)-3-ethylcarbamoyl-cyclopentyl)-N-methyl-benzamide]	< 300 nM
CCNC(=O)[C@H]1CC[C@@H](N(C)C(=O)c2ccc(-c3cccnc3)cc2)C1 [Compound A102, N-((1R,3S)-3-ethylcarbamoyl-cyclopentyl)-N-methyl-4-pyridin-3-yl-benzamide]	< 300 nM
CCNC(=O)[C@H]1CC[C@@H](N(C)C(=O)c2ccc(-c3ccc(C#N)cc3)cc2)C1 [Compound A103, 4′-cyano-biphenyl-4-carboxylic acid ((1R,3S)-3-ethylcarbamoyl-cyclopentyl)-methyl-amide]	< 300 nM
CCNC(=O)[C@H]1CC[C@@H](N(C)C(=O)c2ccc(-c3ccc(F)cc3)cc2)C1 [Compound A104, 4′-fluoro-biphenyl-4-carboxylic acid ((1R,3S)-3-ethylcarbamoyl-cyclopentyl)-methyl-amide]	< 300 nM
CN(C(=O)c1ccc(-c2nc3ccccc3o2)cc1)[C@@H]1CC[C@H](C(=O)NCCO)C1 [Compound A106, 4-benzoxazol-2-yl-N-[(1R,3S)-3-(2-hydroxy-ethylcarbamoyl)-cyclopentyl]-N-methyl-benzamide]	< 300 nM
CCNC(=O)[C@H]1CC[C@@H](N(C)C(=O)c2ccc(-c3cccc4[nH]ncc34)cc2)C1 [Compound A107, N-((1R,3S)-3-ethylcarbamoyl-cyclopentyl)-4-(1H-indazol-4-yl)-N-methyl-benzamide]	< 300 nM
CN(C(=O)c1ccc(-c2nc3ccccc3o2)cc1)[C@@H]1CC[C@H](C(=O)NC2(CO)CC2)C1 [Compound A108, 4-benzoxazol-2-yl-N-[(1R,3S)-3-(1-hydroxymethyl-cyclopropylcarbamoyl)-cyclopentyl]-N-methyl-benzamide]	300 to 3000 nM
